Measured values as given in ChEMBL document CHEMBL3779894, “Synthesis and in Vitro Screening of New Series of 2,6-Dipeptidyl-anthraquinones: Influence of Side Chain Length on HIV-1 Nucleocapsid Inhibitors” (J Med Chem, 2016).
Activity calls are given as the source filed them. The rule behind the calls is not given here.

Legend:
[1] = Inhibition of recombinant full length HIV-1 nucleocapsid assessed as inhibition of nucleocapsid-mediated melting of TAR RNA measured 3 times with 1 min interval by FRET based assay; parameters: species or system Human immunodeficiency virus 1
[2] = Inhibition of recombinant full length HIV-1 nucleocapsid assessed as inhibition of nucleocapsid-mediated melting of cTAR DNA measured 3 times with 1 min interval by FRET based assay; parameters: species or system Human immunodeficiency virus 1
[3] = system: Human immunodeficiency virus 1; experiment: Inhibition of recombinant full length HIV-1 nucleocapsid assessed as inhibition of TAR RNA/cTAR DNA annealing upto 100 uM preincubated with oligonucleotides for 15 mins followed by nucleocapsid addition measured after 15 mins by NAME assay
[4] = system: Human immunodeficiency virus 1; experiment: Binding affinity to HIV-1 29-mer TAR RNA assessed as increase in melting temperature at 10 uM by fluorescence quenching assay
[5] = system: Human immunodeficiency virus 1; experiment: Binding affinity to HIV-1 cTAR DNA assessed as 2:1 […] complex formation at 10 uM by ESI-MS analysis
[6] = system: Human immunodeficiency virus 1; experiment: Binding affinity to HIV-1 29-mer TAR RNA assessed as 1:1 compound-RNA complex formation at 10 uM by ESI-MS analysis
[7] = system: Human immunodeficiency virus 1; experiment: Binding affinity to HIV-1 cTAR DNA-29-mer TAR RNA duplex assessed as increase in melting temperature at 10 uM by fluorescence quenching assay
[8] = system: Human immunodeficiency virus 1; experiment: Binding affinity to HIV-1 cTAR DNA assessed as increase in melting temperature at 10 uM by fluorescence quenching assay
[9] = Inhibition of recombinant full length HIV-1 nucleocapsid assessed as inhibition of TAR RNA/cTAR DNA annealing preincubated with oligonucleotides for 15 mins followed by nucleocapsid addition measured after 15 mins by NAME assay; parameters: species or system Human immunodeficiency virus 1
[10] = system: Human immunodeficiency virus 1; experiment: Selectivity index, ratio of melting temperature for HIV-1 29-mer TAR RNA to HIV-1 cTAR DNA
[11] = system: Human immunodeficiency virus 1; experiment: Inhibition of recombinant full length HIV-1 nucleocapsid assessed as inhibition of TAR RNA /cTAR DNA annealing at 20 to 50 uM preincubated with oligonucleotides for 15 mins followed by nucleocapsid addition measured after 15 mins by NAME assay
[12] = system: Human immunodeficiency virus 1; experiment: Binding affinity to HIV-1 29-mer TAR RNA assessed as 3:1 compound-RNA complex formation at 10 uM by ESI-MS analysis
[13] = system: Human immunodeficiency virus 1; experiment: Binding affinity to HIV-1 cTAR DNA at 10 uM by ESI-MS analysis
[14] = system: Human immunodeficiency virus 1; experiment: Inhibition of recombinant full length HIV-1 nucleocapsid assessed as inhibition of TAR RNA /cTAR DNA annealing at 50 to 100 uM preincubated with oligonucleotides for 15 mins followed by nucleocapsid addition measured after 15 mins by NAME assay
[15] = system: Human immunodeficiency virus 1; experiment: Binding affinity to HIV-1 cTAR DNA assessed as 4:1 […] complex formation at 10 uM by ESI-MS analysis
[16] = system: Human immunodeficiency virus 1; experiment: Binding affinity to HIV-1 29-mer TAR RNA at 10 uM by ESI-MS analysis

SMILES | IC50 [1] [µM] | IC50 [2] [µM] | inhibition [3] | Activity [4] | Activity [5] | Activity [6] | Activity [7] | Activity [8] | IC50 [9] [µM] | Ratio [10] | inhibition [11] | Activity [12] | Activity [13] | inhibition [14] | Activity [15] | Activity [16]
C[C@H](NC(=O)CCN)C(=O)Nc1ccc2c(c1)C(=O)c1ccc(NC(=O)[C@H](C)NC(=O)CCN)cc1C2=O | 39.5 | 12.7 | inactive | – | – | – | – | – | – | – | – | – | – | – | – | –
O=C(CNC(=O)C1CCNCC1)Nc1ccc2c(c1)C(=O)c1ccc(NC(=O)CNC(=O)C3CCNCC3)cc1C2=O | 10.7 | 10.7 | inactive | Active | Active | Active | Active | Active | – | – | – | – | – | – | – | –
C[C@H](NC(=O)C(N)Cc1ccc(N)cc1)C(=O)Nc1ccc2c(c1)C(=O)c1ccc(NC(=O)[C@H](C)NC(=O)C(N)Cc3ccc(N)cc3)cc1C2=O (some centres undefined) | 7.29 | 7.53 | inactive | – | – | – | – | – | – | – | – | – | – | – | – | –
C[C@H](NC(=O)C(N)CCN)C(=O)Nc1ccc2c(c1)C(=O)c1ccc(NC(=O)[C@H](C)NC(=O)C(N)CCN)cc1C2=O (some centres undefined) | 6.9 | 4.28 | inactive | Active | – | – | Active | Active | > 100 | 0.5 | – | – | – | – | – | –
NCCCC(N)C(=O)NCC(=O)Nc1ccc2c(c1)C(=O)c1ccc(NC(=O)CNC(=O)C(N)CCCN)cc1C2=O (centres undefined) | 2.62 | 1.81 | – | Active | – | – | Active | Active | 54.1 | 0.72 | Active | Active | Active | – | – | –
C[C@H](NC(=O)C1(N)CCNCC1)C(=O)Nc1ccc2c(c1)C(=O)c1ccc(NC(=O)[C@H](C)NC(=O)C3(N)CCNCC3)cc1C2=O | 40.2 | 14.6 | inactive | – | – | – | – | – | – | – | – | – | – | – | – | –
C[C@H](NC(=O)C(N)CCCN)C(=O)Nc1ccc2c(c1)C(=O)c1ccc(NC(=O)[C@H](C)NC(=O)C(N)CCCN)cc1C2=O (some centres undefined) | 4.91 | 1.93 | – | Active | – | – | Active | Active | 49.1 | 0.58 | – | Active | – | Active | Active | –
NC1(C(=O)NCC(=O)Nc2ccc3c(c2)C(=O)c2ccc(NC(=O)CNC(=O)C4(N)CCNCC4)cc2C3=O)CCNCC1 | 7.79 | 5.13 | – | Active | – | – | Active | Active | > 100 | – | – | – | – | Active | – | –
Nc1ccc(CC(N)C(=O)NCC(=O)Nc2ccc3c(c2)C(=O)c2ccc(NC(=O)CNC(=O)C(N)Cc4ccc(N)cc4)cc2C3=O)cc1 (centres undefined) | 7.72 | 7.78 | inactive | inactive | – | – | inactive | inactive | > 100 | – | – | – | – | – | – | –
NC[C@H]1CC[C@H](C(=O)NCC(=O)Nc2ccc3c(c2)C(=O)c2ccc(NC(=O)CNC(=O)[C@H]4CC[C@H](CN)CC4)cc2C3=O)CC1 | 11.3 | 9.75 | – | inactive | – | – | inactive | inactive | – | – | – | – | – | – | – | –
NCCC(N)C(=O)NCC(=O)Nc1ccc2c(c1)C(=O)c1ccc(NC(=O)CNC(=O)C(N)CCN)cc1C2=O (centres undefined) | 3.87 | 4.61 | – | Active | – | – | Active | Active | 81.4 | 0.97 | – | – | – | Active | – | –
C[C@H](NC(=O)[C@H]1CC[C@H](CN)CC1)C(=O)Nc1ccc2c(c1)C(=O)c1ccc(NC(=O)[C@H](C)NC(=O)[C@H]3CC[C@H](CN)CC3)cc1C2=O | 14.8 | 14.6 | inactive | – | – | – | – | – | – | – | – | – | – | – | – | –
C[C@H](NC(=O)C(N)CN)C(=O)Nc1ccc2c(c1)C(=O)c1ccc(NC(=O)[C@H](C)NC(=O)C(N)CN)cc1C2=O (some centres undefined) | 67.1 | 44.1 | inactive | inactive | – | – | – | inactive | – | – | – | – | – | – | – | –
C[C@H](NC(=O)C(N)CCCCN)C(=O)Nc1ccc2c(c1)C(=O)c1ccc(NC(=O)[C@H](C)NC(=O)C(N)CCCCN)cc1C2=O (some centres undefined) | 6.61 | 2.68 | – | Active | – | – | Active | Active | 80.4 | 0.56 | – | Active | – | Active | Active | –
NCC(N)C(=O)NCC(=O)Nc1ccc2c(c1)C(=O)c1ccc(NC(=O)CNC(=O)C(N)CN)cc1C2=O (centres undefined) | 4.22 | 3.81 | – | Active | – | – | Active | Active | 103 | – | – | – | – | Active | – | –
NCCCCC(N)C(=O)NCC(=O)Nc1ccc2c(c1)C(=O)c1ccc(NC(=O)CNC(=O)C(N)CCCCN)cc1C2=O (centres undefined) | 2.12 | 1.11 | – | Active | – | – | Active | Active | 23.5 | 0.72 | Active | – | Active | – | – | Active
NCCC(=O)NCC(=O)Nc1ccc2c(c1)C(=O)c1ccc(NC(=O)CNC(=O)CCN)cc1C2=O | 6.42 | 4.06 | – | Active | – | – | Active | Active | > 100 | – | – | – | – | Active | – | –
C[C@H](NC(=O)C1CCNCC1)C(=O)Nc1ccc2c(c1)C(=O)c1ccc(NC(=O)[C@H](C)NC(=O)C3CCNCC3)cc1C2=O | 20.8 | 12 | inactive | – | Active | Active | – | – | – | – | – | – | – | – | – | –
